pKd: −log10 of the molar value. Like-named read-outs stand apart in the source and are kept apart here.
Columns and labels:
[1] = molecular target: T1, F17aG receptor-binding domain (Escherichia coli, UniProt Q99003); assay: biochemical
T1 construct: variants of the lectin domains with oligolysine (4Lys) tails have been constructed; made in house; host or cells: E. coli (periplasm)
Description: (§1) The affinity profiles were determined by surface plasmon resonance (SPR) measurements using a BiaCore 3000 instrument (GE Healthcare). […] The proteins were covalently immobilized on CM5 sensor chips (Biacore AB) to an average density of 2000 RU (resonance units in pg/mm^2). On each chip, one flow cell was coated with a camel single domain antibody for use as a reference cell. The other three flow cells (Fc2, Fc3 and Fc4) were coated with three different F17G variants. Carbohydrate concentrations ranging from 10 µM to 10 mM in running buffer (20 mM Hepes, pH 7.4; 150 mM NaCl; 3 mM EDTA and 0.005% surfactant Tween 20) were incubated for one minute on all flow cells simultaneously, at 25 °C and at a flow rate of 30 µL/min. Complete dissociation of the carbohydrates in running buffer was verified before starting a new binding cycle. All binding cycles were performed in duplicate, including a zero concentration cycle (injection of pure running buffer). All analysis was done using the BIAeval software. In each case the equilibrium resonance signal from the reference cell was subtracted from that of the various F17G flow cells (2-1, 3-1, 4-1). A Langmuir binding isotherm with a 1:1 stoichiometry was fitted to the data, from which the equilibrium dissociation constants, Kd, were obtained.

[2] = molecular target: T2, F17bG receptor-binding domain (Escherichia coli, UniProt Q47200); settings: SPR steady state, 25 °C, pH 7.4; read-out: Affinity range (Kd class), F17bG
T2 construct: variants of the lectin domains with oligolysine (4Lys) tails have been constructed; made in house; host or cells: E. coli (periplasm)
Description: as §1

[3] = molecular target: F17fG receptor-binding domain (Escherichia coli, UniProt Q9RH91); assay: Surface plasmon resonance steady-state affinity, immobilized F17fG; settings: SPR steady state, 25 °C, pH 7.4; read-out: Affinity range (Kd class), F17fG
Description: as §1

[4] = molecular target: F17eG receptor-binding domain; assay: Surface plasmon resonance steady-state affinity, immobilized F17eG; set-up: species or system Escherichia coli; settings: SPR steady state, 25 °C, pH 7.4
Description: as §1

[5] = molecular target: F17bG lectin domain (Escherichia coli, UniProt Q47200); settings: array version 2, exp. 400
Description: A microarray presenting 264 different glycans (mammalian printed array version 2) was used to evaluate if the F17G variant lectin domains differ in the range of glycan receptors that they recognize, thereby establishing tropism. The microarray was set up within the Consortium for Functional Glycomics (CFG) ([20], and supplemental data). Binding of F17G (200 µg/mL) was detected using anti-F17G polyclonal rabbit IgG (10 µg/mL), followed by fluorescently labelled goat anti-rabbit polyclonal antibodies (IgG-488, 5 µg/mL).
(§2) A microarray presenting 264 different glycans (mammalian printed array version 2 from the CFG, experiment 400) was used to evaluate whether the F17G variant lectin domains differ in the range of glycan receptors that they can recognize, thereby establishing strain-dependent tropism. […] The glycan array screening has been repeated for F17aG only on printed array version 4.1 (experiment 2053) (Figure 1).
Printed array version 2 at the Consortium for Functional Glycomics was used for glycan array screening of the variant F17G receptor binding domains. Slides were printed, with six replicates for each glycan, using glycan spotting concentrations of 100 μM, at the Consortium Carbohydrate Synthesis/Protein Expression Core D located at the Scripps Research Institute onto Schott Nexterion H slides (Schott Cat. No. 1070936B). Slide conditioning: preprinted slides were soaked in deionized water for 5 minutes at room temperature and dried under a stream of nitrogen. TSM buffer (20 mM Tris-HCl, pH 7.4, or MOPS 20 mM; 150 mM NaCl; 2 mM CaCl2, 2 mM MgCl2) was used as wash buffer (TSM buffer + 0.05% Tween 20) or binding buffer (TSM buffer + 0.05% Tween 20 + 1% BSA). (1) F17G was diluted to 200 μg/mL (Figure 1) in TSM binding buffer. (2) 50 μL of F17G was applied to the printed surface and coverslipped. (3) The slide was incubated, protected from light, in a humidified chamber for 1 hour at RT. (4) The slide was washed once in TSM wash buffer. 50 μL of the anti-F17G (10 μg/mL) polyclonal rabbit IgG were applied, coverslipped and incubated for 1 h at RT. (5) The slide was washed once in TSM wash buffer. Fifty μL of fluorescently labelled secondary goat anti-rabbit polyclonal antibodies (IgG-488, 5 µg/mL) were applied, coverslipped and incubated for 1 h at RT. (6) Slide was removed, followed by the coverslip, and washed for 10 s each in TSM wash buffer, TSM wash buffer lacking Tween 20, and deionized water. The slide was dried under a stream of nitrogen. (7) The binding image was read in a Perkin Elmer Microscanarray XL4000 scanner and tiff file of image stored. (8) Image analysis was performed using Imagene (V.6) image analysis software. (9) Raw data results files were generated in Excel format and uploaded to the Consortium database as .dat files. (10) Imagene data was uploaded to the database as .txt files.

[6] = test system: FedF lectin domain; assay: CFG glycan array version 2 (experiment 399), FedF lectin domain; format: binding, Escherichia coli; settings: CFG glycan array experiment 399; FedF 100 μg/mL
Source text: The most highly, triple, sulfated disaccharide (1) is here the best binder: Galβ1,4GlcNAc sulfated at positions 3', 6' and 6 (Table 3). Sulfation of the O6 hydroxyl (2) of GlcNAc is important, as well as N-acetylation on its position 2 (3) because the lactose form has lower affinity. Monosulfation on the non-reducing end galactose (one ion at either 3', 6' or 4') and lack of sulfation at the reducing end GlcNAc each decrease the fluorescence signal dramatically.

[7] = molecular target: F17aG lectin domain (Escherichia coli, UniProt Q99003); settings: array version 4.1, exp. 2053
Source text: With mammalian printed array version 4.1, a new evaluation parameter was taken into account, namely % CV = 100 × Std. Dev/Mean. The highest and the lowest point from each set of six replicates have been removed so the average is of 4 values rather than 6. This eliminates some of the false hits that contain a single very high or low point. Thus, points with a high % CV should be considered suspect. […] This comparison provides information on binding specificity. The CFG glycan array data are available containing searchable results by means of flex-based data browser tools.
as §2

[8] = test system: FimH; set-up: method as in PMID 18446213; settings: cited from earlier work
[9] = SPR steady state, 25 °C, pH 7.4, read-out: Affinity range (Kd class), F17aG
[10] = read-out: Affinity range (Kd class), F17eG
[11] = SPR steady state, 25 °C, pH 7.4, good fit for at least three related experiments, read-out: dissociation constant Kd, F17aG
[12] = good fit for at least three related experiments, read-out: dissociation constant Kd, F17eG

T2 sequence (Q47200 23-199): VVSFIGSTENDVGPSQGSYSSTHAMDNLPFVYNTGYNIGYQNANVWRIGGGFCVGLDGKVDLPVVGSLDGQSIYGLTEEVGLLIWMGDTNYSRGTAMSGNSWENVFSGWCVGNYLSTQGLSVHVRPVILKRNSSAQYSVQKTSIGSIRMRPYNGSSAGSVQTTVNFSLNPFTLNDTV
T1 sequence (Q99003 23-199): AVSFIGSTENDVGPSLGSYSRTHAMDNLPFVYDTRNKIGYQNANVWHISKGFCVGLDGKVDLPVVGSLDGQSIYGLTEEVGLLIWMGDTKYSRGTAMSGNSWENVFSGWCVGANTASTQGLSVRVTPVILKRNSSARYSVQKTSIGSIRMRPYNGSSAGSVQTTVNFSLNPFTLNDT
Sequence of F17fG receptor-binding domain (Q9RH91 23-198): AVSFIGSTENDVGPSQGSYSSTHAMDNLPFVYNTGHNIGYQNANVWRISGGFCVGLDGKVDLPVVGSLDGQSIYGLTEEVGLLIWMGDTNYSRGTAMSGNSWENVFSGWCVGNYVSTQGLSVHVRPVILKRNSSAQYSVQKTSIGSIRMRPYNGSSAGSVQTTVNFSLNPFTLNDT
Sequence of F17aG lectin domain (Q99003 23-199): as the sequence (Q99003 23-199) above
Sequence of F17bG lectin domain (Q47200 23-199): as the sequence (Q47200 23-199) above

Row | Compound | pKd [1, 9] | pKd [2] | pKd [3] | RFU (averaged Relative Fluorescence Units for the six replicates), FedF lectin domain [6] | also measured
1 | CC(=O)N[C@H]1C(O)O[C@H](CO)[C@@H](O)[C@@H]1OS(=O)(=O)O (stereo partly drawn) [GlcNAc3SO3^−] | 2.00 to 3.00 | 2.00 to 3.00 | < 1.00 | – | –
2 | CC(=O)N[C@H]1C(O)O[C@H](COP(=O)(O)O)[C@@H](O)[C@@H]1O (stereo partly drawn) [GlcNAc6PO3^2−] | < 1.00 | 1.00 to 2.00 | < 1.00 | – | –
3 | CC(=O)N[C@@H]1[C@@H](O)[C@H](O)[C@@H](COS(=O)(=O)O)O[C@H]1O [GlcNAc6SO3^−] | 1.00 to 2.00 | – | < 1.00 | – | pKd [4, 10]: 2.00 to 3.00
4 | CO[C@@H]1O[C@H](CO)[C@H](O)[C@H](O[C@@H]2O[C@H](CO)[C@@H](O)[C@H](O)[C@H]2NC(C)=O)[C@H]1O [GlcNAcβ1,3Gal, GlcNAc(β1-3)Galβ1OMe] | 3.00 to 4.00 | 2.00 to 3.00 | 3.00 to 4.00 | – | pKd ([1]; SPR measurements, text says F17G without variant, read-out: Kd of F17G as stated in the discussion): 3.18; pKd [1, 11]: 3.18; pKd [4, 12]: 3.55
5 | CO[C@@H]1O[C@H](CO)[C@H](O[C@@H]2O[C@H](CO)[C@@H](O)[C@H](O)[C@H]2NC(C)=O)[C@H](O)[C@H]1O [GlcNAcβ1,4Gal, GlcNAc(β1-4)Galβ1OMe] | 2.00 to 3.00 | – | – | – | pKd [1, 11]: 2.48; pKd [4, 12]: 2.57; pKd [4, 10]: 2.00 to 3.00
6 | CC(=O)N[C@H]1[C@H](O[C@H]2[C@H](O)[C@@H](NC(C)=O)C(O)O[C@@H]2CO)O[C@H](CO)[C@@H](O)[C@@H]1O (stereo partly drawn) [GlcNAcβ1,4GlcNAc] | 2.00 to 3.00 | 2.00 to 3.00 | 2.00 to 3.00 | – | pKd [1, 11]: 2.48
7 | CO[C@@H]1O[C@H](CO[C@@H]2O[C@H](CO)[C@@H](O)[C@H](O)[C@H]2NC(C)=O)[C@H](O)[C@H](O)[C@H]1O [GlcNAcβ1,6Gal, GlcNAc(β1-6)Galβ1OMe] | 2.00 to 3.00 | – | – | – | pKd [1, 11]: 2.55; pKd [4, 12]: 2.42; pKd [4, 10]: 2.00 to 3.00
8 | CC(=O)N[C@H]1C(O)O[C@H](CO)[C@@H](O[C@@H]2O[C@H](CO)[C@@H](O)[C@H](O)[C@H]2N)[C@@H]1O[C@H](C)C(=O)O (stereo partly drawn) [GlcNH2-MurNAc, glucosamine β1,4 N-actetylmuramic acid] | 1.00 to 2.00 | 1.00 to 2.00 | < 1.00 | – | –
9 | CC(=O)N[C@@H]1C(O)O[C@H](CO)[C@@H](O)[C@@H]1O (stereo partly drawn) [N-acetylmannosamine] | 2.00 to 3.00 | 1.00 to 2.00 | 2.00 to 3.00 | – | –
10 | CC(=O)NC1C(O)OC(COS(=O)(=O)O)C(OC2OC(CO)C(O)C(OS(=O)(=O)O)C2O)C1O (stereo not drawn) [[3OSO3]Galβ1,4[6OSO3]GlcNAc] | – | – | – | 6,806 RFU | Rank among binders on CFG array, F17bG (variant b) [5]: 28th best binder; Rank among binders on CFG array, F17aG [7]: tenth best binder
11 | O=S(=O)(O)OCC1OC(O)C(O)C(O)C1OC1OC(CO)C(O)C(OS(=O)(=O)O)C1O (stereo not drawn) [[3OSO3]Galβ1,4[6OSO3]Glc] | – | – | – | 4,073 RFU | –
12 | CC(=O)N[C@H]1C(O)O[C@H](COS(=O)(=O)O)[C@@H](O[C@@H]2O[C@H](COS(=O)(=O)O)[C@H](O)[C@H](OS(=O)(=O)O)[C@H]2O)[C@@H]1O (stereo partly drawn) [[3OSO3][6OSO3]Galβ1,4[6OSO3]GlcNAc] | – | – | – | 10,388 RFU | –
13 | CC(=O)NC1C(O)OC(CO)C(OC2OC(COS(=O)(=O)O)C(OS(=O)(=O)O)C(O)C2O)C1O (stereo not drawn) [[4OSO3][6OSO3]Galβ1,4GlcNAc] | – | – | – | 4,568 RFU | –
14 | O=S(=O)(O)OC[C@H]1O[C@@H](O[C@H]2[C@H](O)[C@@H](O)C(O)O[C@@H]2COS(=O)(=O)O)[C@H](O)[C@@H](O)[C@H]1O (stereo partly drawn) [[6OSO3]Galβ1,4[6OSO3]Glc] | – | – | – | 5,405 RFU | –
15 | CC(=O)N[C@H]1[C@H](O[C@H]2[C@H](O)[C@@H](NC(C)=O)C(O)O[C@@H]2CO)O[C@H](CO)[C@@H](O[C@@H]2O[C@H](CO[C@H]3O[C@H](CO)[C@@H](O)[C@H](O)[C@@H]3O)[C@@H](O)[C@H](O[C@H]3O[C@H](CO)[C@@H](O)[C@H](O)[C@@H]3O)[C@@H]2O)[C@@H]1O (stereo partly drawn) [oligomannose-3] | – | – | – | – | increased binding compared to α-D-mannose [8]: 100 fold
16 | CC(=O)N[C@H]1[C@H](Oc2ccc([N+](=O)[O-])cc2)O[C@H](CO)[C@@H](O)[C@@H]1O [pNP-GlcNAc, paranitrophenyl β-GlcNAc] | 3.00 to 4.00 | 1.00 to 2.00 | 2.00 to 3.00 | – | –
17 | Galβ1,6GlcNAc | – | – | 1.00 to 2.00 | – | pKd [4, 10]: 2.00 to 3.00
18 | HOOC(CH3)CH3-3-O-GlcNAcβ1,4GlcNAcβ-Sp10 | – | – | – | – | Rank among binders on CFG array, F17aG [7]: highest binding
19 | [3OSO3][6OSO3]Galβ1,4GlcNAc | – | – | – | 4,733 RFU | –

From paper PMC3960879 (Biology, 2013)
